# From patent US20100297330A1, “YOGHURT CONTAINING HYDROXYTYROSOL AND OTHER BIOPHENOLS WITH A PREVENTIVE NUTRITIONAL ACTIVITY BENEFICIAL TO HUMAN BEINGS” (priority 2007, published 2010)
# What was measured:
# mammals = assay: toxicity in mammals (unpublished proprietary studies); type: in vivo; conditions: 2 g/kg of body weight
# human cell systems = conditions: cited from earlier work
# cell membranes = conditions: cited from earlier work
smiles,measurement,setting,value
"OCCc1ccc(O)c(O)c1 [HT, Hydroxytyrosol]",toxicity or evident alterations in the internal organs,mammals,does not cause toxicity or evident alterations in the internal organs
same,effect on cytotoxic effects of reactive oxygen species,human cell systems,effectively counteracts the cytotoxic effects
same,"permeation of the cell membranes, mechanism",cell membranes,passive mechanism
